Source: article PMC12441861, “Next-Generation Lipid Prodrugs Orally Deliver Tenofovir via Enhanced Chylomicron Incorporation” (ACS Pharmacology & Translational Science, 2025)
Like-named read-outs stand apart in the source and are kept apart here.

Columns and labels:
Cytotoxicity, MTT assay = conditions: human
[1] = Mouse oral PK and tissue distribution, fed state; format: in vivo; conditions: for Tmax / AUC(0-t) / Cmax: male, C57BL/6, mouse; for AUC(0-t): read-out: Plasma AUC0-18h; for improvement in lung AUC over TXL / improvement in lung AUC over non-BOG counterpart (21a vs 15a, 21b vs 15b) / increase in plasma AUC relative to TXL / increase in plasma AUC relative to non-BOG counterpart (21a vs 15a, 21b vs 15b) / increase in plasma Cmax relative to TXL / increase in plasma Cmax relative to non-BOG counterpart (21a vs 15a, 21b vs 15b): 10 mg/kg oral
Description: Given the increased packaging of the CF3-modified lipids into CMs compared to their ω-unmodified congeners, we selected these compounds for PK studies in mice. We hypothesized that, following oral administration, our modified prodrugs would favor CM-mediated transport into the lymphatics over absorption into mesenteric veins feeding into the portal system. By circumventing direct transport to the liver, these prodrugs are expected to achieve elevated levels in the lung relative to the liver, as lymph empties into the jugular venous angle and mixes with blood en route to the pulmonary arteries (Figure ). For all mouse PK experiments, prodrugs were formulated in a 9:1 mixture of olive oil and ethanol, then administered to male C57BL/6 mice via oral gavage at a dose of 10 mg/kg. Organs (liver, lung, and plasma) were harvested at 1, 2, 4, 8, and 18 h postdose, per the protocol described by our groups previously. Concentrations of prodrug were quantified using LC-MS/MS after tissue homogenization, extraction, and sample preparation.
(§1) The compounds TXL, 15a, 15b, 21a, 21b, and a vehicle control were prepared at a concentration of 1 mg/mL in a 90:10 solution of olive oil (Sigma-Aldrich, cat. No. O1514) and 190-proof ethanol. The dosing for each mouse was calculated based on individual body weights to achieve a final dose of 10 mg/kg. For example, a 20 g mouse would receive 200 μL of the 1 mg/mL drug formulation, while a 25 g mouse would receive 250 μL.
(§2) In accordance with the American Chemical Society Guidelines to Publication of Chemical Research, we affirm the use of standard ethical practices when housing and handling research animals, as ensured by the Emory University’s Institutional Animal Care and Use Committee (IACUC) and the Division of Animal Resources (DAR) through a rigorous protocol review, amendment, and approval process. A total of 220 C57BL6/J male mice (aged 11–12 weeks, weight, 22–30 g) were used for these studies. Each mouse was weighed, recorded, and ear-clipped for identification. The dosing for each mouse was calculated based on individual body weights to achieve a final dose of 10 mg/kg. Animals were anesthetized using isoflurane gas before receiving a single dose of drug prepared as described above using a 22-gauge gavage needle attached to a calibrated syringe.
(§3) Time points for tissue collection were 1, 2, 4, 8, and 18 h for unfasted mice, and 1, 2, 4, 8, and 24 h for fasted mice. At each time point, the mice (n = 4 per compound per time point) were anesthetized using isoflurane and subjected to cardiac puncture for blood collection into EDTA-coated tubes. The collected blood samples were immediately placed on ice before the mice were humanely euthanized via cervical dislocation. Brain, liver, lungs, and kidneys were harvested, rinsed in PBS, and placed in prelabeled tubes. Tissues were flash-frozen in liquid nitrogen then transferred to dry ice for storage.
Blood samples were collected into EDTA-coated tubes and centrifuged at 400 RCF for 10 min at 4 °C to separate plasma from the cellular components. The plasma layer was carefully pipetted off and stored in separate prelabeled and preweighed tubes. All tissues were stored at −80 °C until time for processing.
(§4) Tissues were weighed (∼50 mg) into homogenization tubes and ACN containing a 10 μM ITSD was added to achieve a final solvent-to-tissue ratio of 4:1. Homogenization beads were added, and the tissues were processed (Biotage Lysera, part no. 19–060) using two 20 s pulses with a 10 s interval period. Homogenate was centrifuged at maximum speed for 1 h, supernatant collected and analyzed via LC-MS using the method described previously. For plasma samples, a 50 μL aliquot was added 200 μL of ACN containing ITSD. The mixture was vortexed thoroughly and then centrifuged to precipitate proteins, with the supernatant collected and analyzed via LC-MS. […]

[2] = Mouse oral PK and tissue distribution, fasted state; format: in vivo; conditions: for Tmax: male, C57BL/6, mouse, lung, po, 10 mg/kg, tissue not stated; for lung AUC, fasted: overnight fast, final time point 24 h
Method: It is well established that oral absorption and subsequent tissue distribution of lipophilic drugs can be affected by an animal’s fed state. − Food intake serves as a stimulus for CM production in enterocytes, and therefore, variable fed states contribute to differences in prodrug absorption into the lymphatics. […] To evaluate the impact of fasting on drug absorption and distribution, we modified our protocol to include an overnight fast. This mouse PK experiment was performed as above, with the final time point extended to 24 h (instead of 18) for logistical considerations.
In accordance with the American Chemical Society Guidelines to Publication of Chemical Research, we affirm the use of standard ethical practices when housing and handling research animals, as ensured by the Emory University’s Institutional Animal Care and Use Committee (IACUC) and the Division of Animal Resources (DAR) through a rigorous protocol review, amendment, and approval process. During in vivo experiments, mice were housed in compliance with Emory University’s Division of Animal Resources (DAR) guidelines. For fasting experiments, food was removed the evening before the experiment. Mice had access to water throughout the fasting period. Food was reintroduced 4 h after oral dosing per industry standard protocols. Animals were monitored daily for signs of pain, distress, or adverse events. All procedures were conducted following protocols approved by the Institutional Animal Care and Use Committee (IACUC).
as §1, §2, §3
as §4, with “ITSD.” for “ITSD. The mixture was vortexed thoroughly and then centrifuged to precipitate proteins, with the supernatant collected and analyzed via LC-MS.”

[3] = in vivo, po, 10 mg/kg, single oral dose 10 mg/kg, fed mice, read-out: Liver Tmax
[4] = in vivo, po, 10 mg/kg, single oral dose 10 mg/kg, fed mice, read-out: Lung Tmax
[5] = in vivo, po, 10 mg/kg, single oral dose 10 mg/kg, fed mice, read-out: Plasma Tmax
[6] = in vivo, single oral dose 10 mg/kg, fed mice
[7] = in vivo, single oral dose 10 mg/kg, fed mice, read-out: Plasma Cmax
[8] = single oral dose 10 mg/kg, fed mice
[9] = liver, single oral dose 10 mg/kg, fed mice, read-out: Liver Tmax
[10] = plasma, single oral dose 10 mg/kg, fed mice
[11] = plasma, single oral dose 10 mg/kg, fed mice, read-out: Plasma Tmax

improvement in lung AUC over TXL ([1]; fed mice) | improvement in lung AUC over non-BOG counterpart (21a vs 15a, 21b vs 15b) ([1]; fed mice) | increase in plasma AUC relative to TXL ([1]; fed mice) | increase in plasma AUC relative to non-BOG counterpart (21a vs 15a, 21b vs 15b) ([1]; fed mice) | increase in plasma Cmax relative to TXL ([1]; fed mice) | increase in plasma Cmax relative to non-BOG counterpart (21a vs 15a, 21b vs 15b) ([1]; fed mice) | Tmax [1, 9] | Cmax [1, 10] | AUC(0-t) [1, 10] | Tmax [1, 11] | Lung AUC0-18h [1, 8] | SMILES | CC50 at 48 h (Cytotoxicity, MTT assay) | Tmax [1, 3] | Tmax [1, 4] | Tmax [1, 5] | AUC(0-t) [1, 6] | Cmax [1, 7] | Liver AUC0-18h [1, 8] | Liver Cmax [1, 8] | Lung Cmax [1, 8] | further results
– | – | – | – | – | – | – | – | – | – | – | C[C@H](Cn1cnc2c(N)ncnc21)OCP(=O)(O)OCCCOCCCCCCCCCCCCCCCC(F)(F)F [15a, Ammonium[(1R)-2-(6-aminopurin-9-yl)-1-methyl-ethoxy]methyl-[3-(16,16,16-trifluorohexadecoxy)propoxy]phosphinate] | > 10 µM | 2 h | 8 h | 2 h | 706 ng·h/mL | 127 ng/mL | 190,000 h*ng/g | 27,000 ng/g | 729 ng/g | –
10 fold | 9 fold | 16 fold | 7 fold | 32 fold | 7 fold | 4 h | 915 ng/mL | 4710 ng·h/mL | 1 h | 72,300 h*ng/g | C[C@H](Cn1cnc2c(N)ncnc21)OCP(=O)(O)OC[C@H](COCCCCCCCCCCCCCCCC(F)(F)F)OCc1ccccc1 [21a, Ammonium[(1R)-2-(6-Aminopurin-9-yl)-1-methyl-ethoxy]methyl-[(2S)-2-benzyloxy-3-(16,16,16-trifluorohexadecoxy)propoxy]phosphinate] | – | – | – | – | – | – | 564,000 h*ng/g | 37,600 ng/g | 7,330 ng/g | Tmax ([1]; lung, po, 10 mg/kg, tissue not stated, read-out: Tmax (fed)): 8 h; Fasted:Fed PK Ratio, liver AUC ([2]; 10 mg/kg oral): 0.76; Fasted:Fed PK Ratio, liver Cmax ([2]; 10 mg/kg oral): 1.6; Fasted:Fed PK Ratio, lung AUC ([2]; 10 mg/kg oral): 0.83; Fasted:Fed PK Ratio, lung Cmax ([2]; 10 mg/kg oral): 0.69; Fasted:Fed PK Ratio, plasma AUC ([2]; 10 mg/kg oral): 2.4; Fasted:Fed PK Ratio, plasma Cmax ([2]; 10 mg/kg oral): 0.72; decrease in lung concentration under fasted conditions ([2]; 10 mg/kg oral): 17%; Tmax [2]: 1 h; lung AUC, fasted ([2]; 10 mg/kg oral): 59,900 h·ng/g
4 fold | 4 fold | 15 fold | 5 fold | 28 fold | 8 fold | 4 h | 802 ng/mL | 4530 ng·h/mL | 2 h | 31,100 h*ng/g | C[C@H](Cn1cnc2c(N)ncnc21)OCP(=O)(O)OC[C@H](COCCCCCCCCCCCCCCCCCC(F)(F)F)OCc1ccccc1 [21b, Ammonium[(1R)-2-(6-aminopurin-9-yl)-1-methyl-ethoxy]methyl-[(2S)-2-benzyloxy-3-(18,18,18-trifluorooctadecoxy)propoxy]phosphinate] | – | – | – | – | – | – | 218,000 h*ng/g | 22,000 ng/g | 3,000 ng/g | Tmax ([1]; lung, single oral dose 10 mg/kg, fed mice, read-out: Lung Tmax): 8 h
– | – | – | – | – | – | – | – | – | – | – | CCCCCCCCCCCCCCCCOCCCOP(=O)(O)CO[C@H](C)Cn1cnc2c(N)ncnc21 [TXL, hexadecyloxypropyl (HDP)-TFV, reference compound] | > 10 µM | 2 h | 8 h | 8 h | 298 ng·h/mL | 29.1 ng/mL | 25,600 h*ng/g | 2,660 ng/g | 583 ng/g | Tmax ([1]; in vivo, po, 10 mg/kg, tissue not stated, read-out: Tmax (fed)): 8 h; Fasted:Fed PK Ratio, liver AUC ([2]; 10 mg/kg oral): 0.64; Fasted:Fed PK Ratio, liver Cmax ([2]; 10 mg/kg oral): 1.5; Fasted:Fed PK Ratio, lung AUC ([2]; 10 mg/kg oral): 2.1; Fasted:Fed PK Ratio, lung Cmax ([2]; 10 mg/kg oral): 2.2; Fasted:Fed PK Ratio, plasma AUC ([2]; 10 mg/kg oral): 1.9; Fasted:Fed PK Ratio, plasma Cmax ([2]; 10 mg/kg oral): 1.4; increase in lung AUC in fasted versus fed mice ([2]; 10 mg/kg oral): 2 fold; Tmax [2]: 4 h; lung AUC, fasted ([2]; 10 mg/kg oral): 15,600 h·ng/g
